Consider 20 molecules from patent US5686454A, “Camphorcarbonyl” (Merck & Co., Inc., priority 1996, dated 1997).

What is called IC50 is the concentration that inhibits the measured activity by half. By inhibition is commonly meant the share of the control response that was lost under treatment.

One test addresses T1, uterine OT receptors (Rattus norvegicus, UniProt P70536).
T1 construct: crude membrane preparation of uteri; from tissue; host or cells: uterus of DES-treated rats, crude membranes
T1 sequence (P70536 1-388): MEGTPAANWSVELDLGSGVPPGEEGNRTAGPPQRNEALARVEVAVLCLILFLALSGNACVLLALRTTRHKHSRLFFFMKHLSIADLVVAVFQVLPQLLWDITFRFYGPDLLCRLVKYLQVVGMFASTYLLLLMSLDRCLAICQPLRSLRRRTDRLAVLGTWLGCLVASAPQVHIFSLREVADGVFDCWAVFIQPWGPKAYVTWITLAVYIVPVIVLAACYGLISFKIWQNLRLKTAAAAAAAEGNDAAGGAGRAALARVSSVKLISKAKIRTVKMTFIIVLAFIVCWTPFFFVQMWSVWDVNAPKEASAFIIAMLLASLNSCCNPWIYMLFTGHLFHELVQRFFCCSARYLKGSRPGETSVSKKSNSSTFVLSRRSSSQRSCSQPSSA
Put plainly: Radioligand binding: competition of [^3 H]oxytocin binding to rat uterine membranes. The following applies: 1 nM [^3 H]OT, rat uterus membranes, 60 minutes, 22° C., pH 7.4; read-out: IC50. The text has this: RADIOGLIGAND BINDING ASSAYS
The high affinity binding of [^3 H]
Turning to `Cc1ccccc1N1CCN(S(=O)(=O)CC23CCC(CC2NC(=O)[C@H](CCS(C)(=O)=O)NC(=O)OC(C)(C)C)C3(C)C)CC1` (stereo partly drawn) [Example 71, 1-((7,7-Dimethyl-2-endo-(2S-(tert-butyloxycarbonyl-amino)-4-(methylsulfonyl)-butyramido)-bicyclo(2.2.1)-heptan-1-yl)methanesulfonyl)-4-(2-methylphenyl)-piperazine], the IC50 turned out to be 7.7 nM.

As for `Cc1ccccc1N1CCN(S(=O)(=O)CC23CCC(CC2(O)C(C)CNC(=O)[C@@H]2CCCN2CCC(=O)O)C3(C)C)CC1` (stereo partly drawn) [Example 82, 1-((7,7-Dimethyl-2-exo-hydroxy-2-endo-2-(1-(1-N-(carboxyethyl)prolyl)amino)propyl-bicyclo(2.2.1)-heptan-1-yl)methanesulfonyl)-4-(2-methylphenyl)piperazine], the IC50 was determined as 15 nM.

Turning to `Cc1ccccc1N1CCN(C(=O)C2C3CCC(C)(C2NC(=O)[C@@H]2CCCN2)C3(C)C)CC1` (some centres unmarked) [Example 15, 1-(2-methylphenyl)-4-[(4,7,7-trimethyl-3-prolylaminobicyclo[2.2.1]hept-2-yl)carbonyl]-piperazine], the IC50 was determined as 60 nM.

On to `Cc1ccccc1N1CCN(S(=O)(=O)CC23CCC(CC2N(C)C(=O)OCc2ccccc2)C3(C)C)CC1` (stereo not drawn) [Example 76, 1-((7,7-Dimethyl-2-endo-methyl(benzyloxy-carbonyl)amino-bicyclo(2.2.1)-heptan-1-yl)methanesulfonyl)4-(2-methylphenyl)piperazine], for which the IC50 worked out at 6.3 nM.

`COC(=O)C1CC2CCC1(CS(=O)(=O)N1CCN(c3ccccc3C)CC1)C2(C)C` (stereo not drawn) [Example 59, 1-((7,7-Dimethyl-2-endo-methoxycarbonyl-bicyclo-(2.2.1)heptan-1-yl)methanesulfonyl)-4-(2-methyl-phenyl)piperazine]: the concentration for half-maximal inhibition (IC50) amounted to 260 nM.

Take `Cc1ccccc1N1CCN(C(=O)C2C3CCC(C)(C2NC(=O)C(N)C(C)O)C3(C)C)CC1` (centres unmarked) [Example 20, 1-(2-methylphenyl)-4-[(4,7,7-trimethyl-3-(2-amino-3-hydroxy)butyrylaminobicyclo[2.2.1]hept-2-yl)carbonyl]-piperazine]: the IC50 amounted to 3.6 nM.

As to `COC(=O)CCN(CCC(=O)OC)CC(C)[C@@]1(O)C[C@H]2CC[C@]1(CS(=O)(=O)N1CCN(c3ccccc3C)CC1)C2(C)C` (stereo partly drawn) [Example 47, 1-((7,7-dimethyl-2-exo-hydroxy-2-endo-2-(1-bis-(2-methoxycarbonylethyl)amino)propyl-bicyclo(2.2.1)heptan-1-yl)methanesulfonyl)-4-(2-methylphenyl)piperazine], the IC50 was 54 nM.

In the case of `Cc1ccccc1N1CCN(S(=O)(=O)CC23CCC(CC2(O)C(C)CNC(=O)C2CCNCC2)C3(C)C)CC1` (centres unmarked) [Example 90], the IC50 came to 30 nM.

On to `Cc1ccccc1N1CCN(S(=O)(=O)CC23CCC(CC2NC(=O)[C@H](CCS(C)(=O)=O)NC(=O)Cc2c[nH]cn2)C3(C)C)CC1` (stereo partly drawn) [Example 73, 1-((7,7-Dimethyl-2-endo-(2S-(imidazol-4-ylacetyl-amino)-4-(methylsulfonyl)butyramido)-bicyclo(2.2.1)-heptan-1-yl)methanesulfonyl)-4-(2-methylphenyl)-piperazine], for which the 50% inhibitory concentration (IC50) stood at 5.4 nM.

Consider `Cc1ccccc1N1CCN(S(=O)(=O)C[C@]23CC[C@H](CC2=CCCl)C3(C)C)CC1` [Example 49, 1-((7,7-dimethyl-2-(2-chloro)ethylidinebicyclo-(2.2.1)heptan-1-yl)methanesulfonyl)-4-(2-methyl-phenyl)piperazine], for which the IC50 came to 1100 nM.

Take `Cc1ccccc1N1CCN(C(=O)C2C3CCC(C)(C2NC(=O)C(NC(=O)OC(C)(C)C)C(C)O)C3(C)C)CC1` (centres unmarked) [Example 19, 1-(2-methylphenyl)-4-[(4,7,7-trimethyl-3-(2-(t-butoxycarbonyl)amino-3-hydroxy)butyrylaminobicyclo[2.2.1]hept-2-yl)carbonyl]-piperazine]: the IC50 came out at 160 nM.

The same test, now with this note: read-out: % inhibition at 100 nM.
Turning to `Cc1ccccc1N1CCN(S(=O)(=O)CC23CCC(CC2(O)C(C)CNC(=O)C2CCN(CCC(=O)O)CC2)C3(C)C)CC1` (stereo not drawn) [Example 92, 1-((7,7-Dimethyl-2-exo-hydroxy-2-endo-2-(1-(4-(1-carboxyethyl)piperidinylcarbonyl)amino)propyl-bicyclo-(2.2.1)heptan-1-yl)methanesulfonyl)-4-(2-methylphenyl)piperazine], the inhibition at 0.1 µM was 66%.

Consider `Cc1ccccc1N1CCN(S(=O)(=O)C[C@]23CC[C@H](CC2=CCN)C3(C)C)CC1` [Example 52, 1-((7,7-dimethyl-2-(2-amino)ethylidine-bicyclo-(2.2.1)heptan-1-yl)methanesulfonyl)-4-(2-methyl-phenyl)piperazine], for which the inhibition at 0.1 µM was determined as 36%.

With `Cc1ccccc1N1CCN(S(=O)(=O)CC23CCC(CC2N)C3(C)C)CC1` (stereo not drawn) [Example 70, 1-((7,7-Dimethyl-2-endo-amino-bicyclo(2.2.1)heptan-1-yl)methanesulfonyl)-4-(2-methylphenyl)-piperazine], the inhibition at 0.1 µM amounted to 91%.

The test is the same for the next values; noted with them: read-out: % inhibition at 1000 nM.
Regarding `Cc1ccccc1N1CCN(C(=O)C2(CC#N)C(=O)C3(C)CCC2C3(C)C)CC1` (centres unmarked) [Example 5], the inhibition at 1 µM was 27%.

On to `Cc1ccccc1N1CCN(S(=O)(=O)C[C@]23CC[C@H](CC2=CCN=[N+]=[N-])C3(C)C)CC1` [Example 51, 1-((7,7-dimethyl-2-(2-azido)ethylidine-bicyclo-(2.2.1)heptan-1-yl)methanesulfonyl)-4-(2-methyl-phenyl)piperazine], for which the inhibition at 1 µM worked out at 64%.

On to `Cc1ccccc1N1CCN(S(=O)(=O)C[C@]23CC[C@H](C[C@]2(O)CNCC(C)C)C3(C)C)CC1` [Example 55, 1-((7,7-Dimethyl-2-exo-hydroxy-2-endo-isobutylamino-methylbicyclo(2.2.1)heptan-1-yl)methanesulfonyl)-4-(2-methylphenyl)piperazine], for which the inhibition at 1 µM was determined as 72%.

Take `Cc1ccccc1N1CCN(S(=O)(=O)C[C@]23CC[C@H](C=C2C(=O)O)C3(C)C)CC1` [Example 57, 1-((7,7-Dimethyl-2-carboxy-bicyclo(2.2.1)hept-2-en-1-yl)methanesulfonyl)-4-(2-methylphenyl)piperazine]: the inhibition at 1 µM came to 78%.

For `Cc1ccccc1N1CCN(S(=O)(=O)CC23CCC(CC24CO4)C3(C)C)CC1` (single isomer, unassigned) [Example 54, 1-((7,7-Dimethyl-2-spiro-epoxy-bicyclo(2.2.1)heptan-1-yl)methanesulfonyl)-4-(2-methylphenyl)piperazine], the inhibition at 1 µM was 31%.

The same test, now with this note: read-out: % inhibition at 10,000 nM.
As to `Cc1ccccc1N1CCN(S(=O)(=O)CC23CCC(CC2=O)C3(C)C)CC1=O` (centres unmarked) [Example 66, 1-((7,7-Dimethyl-2-oxo-bicyclo(2.2.1)heptan-1-yl)methanesulfonyl)-4-(2-methylphenyl)-3-piperazinone], the inhibition at 10 µM worked out at 5%.
